In patent US20250195530A1, “POLQ INHIBITORS” (ASTRAZENECA AB, priority 2022, published 2025):

What was measured:
DLD-1 cells = test: Inhibition of proliferation, DLD-1 BRCA2 wt control (Cell Titre Glo 3D); type: cell-based; conditions: Homo sapiens, DLD-1, 168 h, DLD-1 BRCA2 wt cells, 7 days; read-out: POLQ PD Prolif Lumin DLD1 mean pIC50 (converted)
How it was run: (§1)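 DLD-1 BRCA2−/− and parental DLD-1 cells exposed to 10-point dose range (10 μM to 0.51 nM, 3-fold) in RPMI/10% FBS at 37 °C, with medium and compound replenished on day 6. Viability by Cell Titre Glo 3D luminescence at day 7 (DLD-1) or day 12 (BRCA2−/−); IC50 as concentration halving maximum signal.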

DLD-1 BRCA2−/− cells = test: Homologous recombination synthetic lethal inhibition of proliferation, DLD-1 BRCA2-/- (Cell Titre Glo 3D); type: cell-based; conditions: Homo sapiens, DLD-1, 288 h, DLD-1 BRCA2−/− cells, 12 days; read-out: POLQ PD Prolif Lumin BRCA2 −/− mean pIC50 (converted)
How it was run: as §1

| SMILES | IC50 (DLD-1 cells) [µM] | IC50 (DLD-1 BRCA2−/− cells) [nM] |
| --- | --- | --- |
| CN1CCN(CCOc2ccc(-c3nc4c(OC5(C)CC5)ncnc4n3Cc3ccccc3)c(Br)c2)CC1 [Example H6, 9-benzyl-8-(2-bromo-4-(2-(4-methylpiperazin-1-yl)ethoxy)phenyl)-6-(1-methylcyclopropoxy)-9H-purine] | 5.01 | 63.1 |
| CN1CCN(CCOc2ccc(-c3nc4c(OC5(C)CC5)ncnc4n3Cc3cccnc3)c(Cl)c2)CC1 [Example H7, 8-(2-chloro-4-(2-(4-methylpiperazin-1-yl)ethoxy)phenyl)-6-(1-methylcyclopropoxy)-9-(pyridin-3-ylmethyl)-9H-purine] | 3.16 | 1000 |
| CN1CCN(CCOc2ccc(-c3nc4c(OC5(C)CC5)ncnc4n3Cc3ccccc3)c(C#N)c2)CC1 [Example H8, 2-(9-benzyl-6-(1-methylcyclopropoxy)-9H-purin-8-yl)-5-(2-(4-methylpiperazin-1-yl)ethoxy)benzonitrile] | > 10 | 398 |
| C#Cc1cc(OCCN2CCN(C)CC2)ccc1-c1nc2c(OC3(C)CC3)ncnc2n1Cc1ccccc1 [Example H9, 9-benzyl-8-(2-ethynyl-4-(2-(4-methylpiperazin-1-yl)ethoxy)phenyl)-6-(1-methylcyclopropoxy)-9H-purine] | 3.98 | 501 |
| CN1CCN(CCOc2ccc(-c3nc4c(OC5(C)CC5)ncnc4n3Cc3ccccc3)c(CO)c2)CC1 [Example H10, (2-(9-benzyl-6-(1-methylcyclopropoxy)-9H-purin-8-yl)-5-(2-(4-methylpiperazin-1-yl)ethoxy)phenyl)methanol] | > 10 | 794 |
| CC1(Oc2ncnc3c2nc(-c2ccc(OCCC(=O)O)cc2Cl)n3Cc2ccccc2)CC1 [Example H11, 3-(4-(9-benzyl-6-(1-methylcyclopropoxy)-9H-purin-8-yl)-3-chlorophenoxy)propanoic acid] | > 10 | 1000 |
| CC1(Oc2ncnc3c2nc(-c2ccc(OCCN4CCC[C@H]4C(=O)O)cc2Cl)n3Cc2ccccc2)CC1 [Example H12, (2-(4-(9-benzyl-6-(1-methylcyclopropoxy)-9H-purin-8-yl)-3-chlorophenoxy)ethyl)-L-proline] | > 10 | 1000 |
| CC1(Oc2ncnc3c2nc(-c2ccc(OCCN4CC[C@@H](O)C4)cc2Cl)n3Cc2ccccc2)CC1 [Example H13, (R)-1-(2-(4-(9-benzyl-6-(1-methylcyclopropoxy)-9H-purin-8-yl)-3-chlorophenoxy)ethyl)pyrrolidin-3-ol] | 3.16 | 100 |
| CC1(Oc2ncnc3c2nc(-c2ccc(OCCN4CC(O)C4)cc2Cl)n3Cc2ccccc2)CC1 [Example H14, 1-(2-(4-(9-benzyl-6-(1-methylcyclopropoxy)-9H-purin-8-yl)-3-chlorophenoxy)ethyl)azetidin-3-ol] | 6.31 | 126 |
| CC1(Oc2ncnc3c2nc(-c2ccc(OCCN4CCC(O)CC4)cc2Cl)n3Cc2ccccc2)CC1 [Example H15, 1-(2-(4-(9-benzyl-6-(1-methylcyclopropoxy)-9H-purin-8-yl)-3-chlorophenoxy)ethyl)piperidin-4-ol] | 1.58 | 79.4 |
| CC1(Oc2ncnc3c2nc(-c2ccc(OCCN4CC5(CC(O)C5)C4)cc2Cl)n3Cc2ccccc2)CC1 [Example H16, 2-(2-(4-(9-benzyl-6-(1-methylcyclopropoxy)-9H-purin-8-yl)-3-chlorophenoxy)ethyl)-2-azaspiro[3.3]heptan-6-ol] | 5.01 | 50.1 |
| CC1(Oc2ncnc3c2nc(-c2ccc(OCCCN4CC(O)C4)cc2Cl)n3Cc2ccccc2)CC1 [Example H17, 1-(3-(4-(9-benzyl-6-(1-methylcyclopropoxy)-9H-purin-8-yl)-3-chlorophenoxy)propyl)azetidin-3-ol] | 2 | 63.1 |
| CC1(Oc2ncnc3c2nc(-c2ccc(OCCN4CC5(CCN5)C4)cc2Cl)n3Cc2ccccc2)CC1 [Example H18, 8-(4-(2-(1,6-diazaspiro[3.3]heptan-6-yl)ethoxy)-2-chlorophenyl)-9-benzyl-6-(1-methylcyclopropoxy)-9H-purine] | 3.16 | 316 |
| C[C@H]1C(=O)NCCN1CCOc1ccc(-c2nc3c(OC4(C)CC4)ncnc3n2Cc2ccccc2)c(Cl)c1 [Example H19, (S)-4-(2-(4-(9-benzyl-6-(1-methylcyclopropoxy)-9H-purin-8-yl)-3-chlorophenoxy)ethyl)-3-methylpiperazin-2-one] | > 10 | 63.1 |
| CC1(Oc2ncnc3c2nc(-c2ccc(OCCN4CC5(C4)CS(=O)(=O)C5)cc2Cl)n3Cc2ccccc2)CC1 [Example H20, 6-(2-(4-(9-benzyl-6-(1-methylcyclopropoxy)-9H-purin-8-yl)-3-chlorophenoxy)ethyl)-2-thia-6-azaspiro[3.3]heptane 2,2-dioxide] | 3.98 | 100 |
| CC1(Oc2ncnc3c2nc(-c2ccc(OCCN4CCNC(=O)CC4)cc2Cl)n3Cc2ccccc2)CC1 [Example H21, 1-(2-(4-(9-benzyl-6-(1-methylcyclopropoxy)-9H-purin-8-yl)-3-chlorophenoxy)ethyl)-1,4-diazepan-5-one] | > 10 | 63.1 |
| C[C@@H]1C(=O)NCCN1CCOc1ccc(-c2nc3c(OC4(C)CC4)ncnc3n2Cc2ccccc2)c(Cl)c1 [Example H22, (R)-4-(2-(4-(9-benzyl-6-(1-methylcyclopropoxy)-9H-purin-8-yl)-3-chlorophenoxy)ethyl)-3-methylpiperazin-2-one] | > 10 | 126 |
| CC1(Oc2ncnc3c2nc(-c2ccc(OCCN4CC5(CSC5)C4)cc2Cl)n3Cc2ccccc2)CC1 [Example H23, 6-(2-(4-(9-benzyl-6-(1-methylcyclopropoxy)-9H-purin-8-yl)-3-chlorophenoxy)ethyl)-2-thia-6-azaspiro[3.3]heptane] | 2.51 | 126 |
| CC1(Oc2ncnc3c2nc(-c2ccc(OCCN4CCNCC4)c(Cl)c2Cl)n3Cc2ccccc2)CC1 [Example J1, 9-benzyl-8-(2,3-dichloro-4-(2-(piperazin-1-yl)ethoxy)phenyl)-6-(1-methylcyclopropoxy)-9H-purine] | 0.501 | 251 |
| COc1cc(-c2nc3c(OC4(C)CC4)ncnc3n2Cc2ccccc2)c(Cl)cc1OCCN1CCNCC1 [Example J2, 9-benzyl-8-(2-chloro-5-methoxy-4-(2-(piperazin-1-yl)ethoxy)phenyl)-6-(1-methylcyclopropoxy)-9H-purine] | 3.98 | 794 |
| COc1c(OCCN2CCNCC2)ccc(-c2nc3c(OC4(C)CC4)ncnc3n2Cc2ccccc2)c1Cl [Example J3, 9-benzyl-8-(2-chloro-3-methoxy-4-(2-(piperazin-1-yl)ethoxy)phenyl)-6-(1-methylcyclopropoxy)-9H-purine] | 3.16 | 501 |
| CC1(Oc2ncnc3c2nc(-c2cc(Cl)c(OCCN4CCNCC4)cc2Cl)n3Cc2ccccc2)CC1 [Example J4, 9-benzyl-8-(2,5-dichloro-4-(2-(piperazin-1-yl)ethoxy)phenyl)-6-(1-methylcyclopropoxy)-9H-purine] | 3.98 | 50.1 |
| Cc1cc(OCCN2CCNCC2)ncc1-c1nc2c(OC3(C)CC3)ncnc2n1Cc1ccccc1Cl [Example J5, 9-(2-chlorobenzyl)-8-(4-methyl-6-(2-(piperazin-1-yl)ethoxy)pyridin-3-yl)-6-(1-methylcyclopropoxy)-9H-purine] | > 10 | 1000 |
